In patent publication US7405230B2, “Phosphodiesterase 4 inhibitors, including N-substituted aniline and diphenylamine analogs” (Memory Pharmaceuticals Corporation, priority 2002, dated 2008):

Legend:
Rats [1] = assay: Passive avoidance in rats, an in vivo test for learning and memory (reversal of MK-801 amnesia); design: species or system rat (Male Spraque-Dawley (Harlan)); settings: MK-801 0.1 mg/kg pretreatment, 24 hours after electric shock, compared to the vehicle (p<0.001)
Procedure: The test was performed as previously described (Zhang, H.-T., Crissman, A. M., Dorairaj, N. R., Chandler, L. J., and O'Donnell, J. M., Neuropsychopharmacology, 2000, 23, 198-204.). The apparatus (Model E10-16SC, Coulbourn Instruments, Allentown, Pa.) consisted of a two-compartment chamber with an illuminated compartment connected to a darkened compartment by a guillotine door. The floor of the darkened compartment consisted of stainless steel rods through which an electric foot-shock could be delivered from a constant current source. All experimental groups were first habituated to the apparatus the day before the start of the experiment. […] The latency for entering the darkened compartment was recorded. […] Twenty-four hours later, the rat was administered 0.1 mg/kg MK-801 or saline, 30 minutes prior to the injection of saline or test compound (dosed from […], which was 30 minutes before the retention test started. The rat was again placed in the illuminated compartment with the guillotine door open. The latency for entering the darkened compartment was recorded for up to 180 seconds, at which time the trial was terminated.
(§1) All data were analyzed by analyses of variance (ANOVA); individual comparisons were made using Kewman-Keuls tests. […]

Rats [2] = assay: Radial arm maze task in rats, an in vivo test for learning and memory (reversal of MK-801 amnesia); design: species or system rat (male Spraque-Dawley (Harlan)); settings: MK-801 0.1 mg/kg, i.p., compared to control (p<0.01)
Procedure: The test was performed as previously described (Zhang, H.-T., Crissman, A. M., Dorairaj, N. R., Chandler, L. J., and O'Donnell, J. M., Neuropsychopharmacology, 2000, 23, 198-204.). Five days after initial housing, rats (male Spraque-Dawley (Harlan) weighing 250 to 350 g) were placed in the eight-arm radial maze (each arm was 60×10×12 cm high; the maze was elevated 70 cm above the floor) for acclimation for two days. Rats were then placed individually in the center of the maze for 5 minutes with food pellets placed close to the food wells, and then, the next day, in the wells at the end of the arms; 2 sessions a day were conducted. Next, four randomly selected arms were then baited with one pellet of food each. The rat was restricted to the center platform (26 cm in diameter) for 15 seconds and then allowed to move freely throughout the maze until it collected all pellets of food or 10 minutes passed, whichever came first. Four parameters were recorded: 1) working memory errors, i.e., entries into baited arms that had already been visited during the same trial; 2) reference memory errors, i.e., entries into unbaited arms; 3) total arm entries; and 4) the test duration (seconds), i.e., the time spent in the collection of all the pellets in the maze. […]
as §1

Structure (SMILES): C[C@]12N[C@H](Cc3ccccc31)c1ccccc12 [MK-801]
- Latency for entering the darkened compartment (Rats [1]): markedly reduced this latency
- Frequencies of working and reference memory errors (Rats [2]): increased the frequencies of both working and reference memory errors
